Test results taken from ChEMBL document CHEMBL4017512 (J Med Chem, 2017).

Experiments:
[1] = Cytotoxicity against human HCT116/VM46 cells assessed as reduction in cell viability after 72 hrs by phosphatase assay; format: cell-based; details: HCT-116/VM46, 72 h
[2] = tested on: L1210; experiment: Antiproliferative activity against mouse L1210 cells after 72 hrs by phosphatase assay; format: functional, cell-based; details: L1210, 72 h
[3] = tested on: HCT-116; experiment: Antiproliferative activity against human HCT116 cells after 72 hrs by phosphatase assay; format: functional, cell-based; details: HCT-116, 72 h

SMILES | IC50 [2] [nM] | IC50 [3] [nM] | IC50 [1] [nM]
CC[C@]1(NC(=O)c2ccc(C(C)(C)C)cc2)C[C@H]2CN(CCc3c([nH]c4ccccc34)[C@@](C(=O)OC)(c3cc4c(cc3OC)N(C)[C@H]3[C@@](O)(C(=O)OC)[C@H](OC(C)=O)[C@]5(CC)C=CCN6CC[C@]43[C@@H]65)C2)C1 | 0.6 | 1.9 | 55
CC[C@]1(NC(=O)c2ccc(C(C)C)cc2)C[C@H]2CN(CCc3c([nH]c4ccccc34)[C@@](C(=O)OC)(c3cc4c(cc3OC)N(C)[C@H]3[C@@](O)(C(=O)OC)[C@H](OC(C)=O)[C@]5(CC)C=CCN6CC[C@]43[C@@H]65)C2)C1 | 5.4 | 6.4 | 13
CC[C@]1(NC(=O)C2CCCCC2)C[C@H]2CN(CCc3c([nH]c4ccccc34)[C@@](C(=O)OC)(c3cc4c(cc3OC)N(C)[C@H]3[C@@](O)(C(=O)OC)[C@H](OC(C)=O)[C@]5(CC)C=CCN6CC[C@]43[C@@H]65)C2)C1 | 55 | 70 | 760
CC[C@]1(NC(=O)c2cc(OC)c(OC)c(OC)c2)C[C@H]2CN(CCc3c([nH]c4ccccc34)[C@@](C(=O)OC)(c3cc4c(cc3OC)N(C)[C@H]3[C@@](O)(C(=O)OC)[C@H](OC(C)=O)[C@]5(CC)C=CCN6CC[C@]43[C@@H]65)C2)C1 | 0.09 | 0.1 | 2.4
CC[C@]1(NS(=O)(=O)c2ccc3ccccc3c2)C[C@H]2CN(CCc3c([nH]c4ccccc34)[C@@](C(=O)OC)(c3cc4c(cc3OC)N(C)[C@H]3[C@@](O)(C(=O)OC)[C@H](OC(C)=O)[C@]5(CC)C=CCN6CC[C@]43[C@@H]65)C2)C1 | 50 | 60 | 440
CC[C@]1(NC(=O)c2ccc(Cl)cc2)C[C@H]2CN(CCc3c([nH]c4ccccc34)[C@@](C(=O)OC)(c3cc4c(cc3OC)N(C)[C@H]3[C@@](O)(C(=O)OC)[C@H](OC(C)=O)[C@]5(CC)C=CCN6CC[C@]43[C@@H]65)C2)C1 | 3.1 | 3.2 | 50
CC[C@]1(NC(=O)C(C)(C)C)C[C@H]2CN(CCc3c([nH]c4ccccc34)[C@@](C(=O)OC)(c3cc4c(cc3OC)N(C)[C@H]3[C@@](O)(C(=O)OC)[C@H](OC(C)=O)[C@]5(CC)C=CCN6CC[C@]43[C@@H]65)C2)C1 | 2800 | 3600 | 4100
CC[C@]1(NC(=O)c2cnco2)C[C@H]2CN(CCc3c([nH]c4ccccc34)[C@@](C(=O)OC)(c3cc4c(cc3OC)N(C)[C@H]3[C@@](O)(C(=O)OC)[C@H](OC(C)=O)[C@]5(CC)C=CCN6CC[C@]43[C@@H]65)C2)C1 | 3.9 | 3.5 | 65
CC[C@]1(NC(=O)c2ccoc2)C[C@H]2CN(CCc3c([nH]c4ccccc34)[C@@](C(=O)OC)(c3cc4c(cc3OC)N(C)[C@H]3[C@@](O)(C(=O)OC)[C@H](OC(C)=O)[C@]5(CC)C=CCN6CC[C@]43[C@@H]65)C2)C1 | 0.7 | 0.6 | 6.3
CC[C@]1(NC(=O)c2ccccn2)C[C@H]2CN(CCc3c([nH]c4ccccc34)[C@@](C(=O)OC)(c3cc4c(cc3OC)N(C)[C@H]3[C@@](O)(C(=O)OC)[C@H](OC(C)=O)[C@]5(CC)C=CCN6CC[C@]43[C@@H]65)C2)C1 | 55 | 50 | 460

More lines, main results first:

IC50 [2] [nM] | IC50 [3] [nM] | SMILES | IC50 [1] [nM]
0.6 | 0.6 | CC[C@]1(NC(=O)c2ccc(N)c(C)c2)C[C@H]2CN(CCc3c([nH]c4ccccc34)[C@@](C(=O)OC)(c3cc4c(cc3OC)N(C)[C@H]3[C@@](O)(C(=O)OC)[C@H](OC(C)=O)[C@]5(CC)C=CCN6CC[C@]43[C@@H]65)C2)C1 | 7.8
0.3 | 0.3 | CC[C@]1(NC(=O)c2ccc3c(c2)OCCN3C)C[C@H]2CN(CCc3c([nH]c4ccccc34)[C@@](C(=O)OC)(c3cc4c(cc3OC)N(C)[C@H]3[C@@](O)(C(=O)OC)[C@H](OC(C)=O)[C@]5(CC)C=CCN6CC[C@]43[C@@H]65)C2)C1 | 4.9
5300 | 4400 | CC[C@]1(NC(=O)C2CCN(C)CC2)C[C@H]2CN(CCc3c([nH]c4ccccc34)[C@@](C(=O)OC)(c3cc4c(cc3OC)N(C)[C@H]3[C@@](O)(C(=O)OC)[C@H](OC(C)=O)[C@]5(CC)C=CCN6CC[C@]43[C@@H]65)C2)C1 | 6600
0.6 | 0.5 | CC[C@]1(NC(=O)c2ccc3c(c2)OCCO3)C[C@H]2CN(CCc3c([nH]c4ccccc34)[C@@](C(=O)OC)(c3cc4c(cc3OC)N(C)[C@H]3[C@@](O)(C(=O)OC)[C@H](OC(C)=O)[C@]5(CC)C=CCN6CC[C@]43[C@@H]65)C2)C1 | 5.3
4.9 | 6.1 | CCSc1ccc(C(=O)N[C@@]2(CC)C[C@H]3CN(CCc4c([nH]c5ccccc45)[C@@](C(=O)OC)(c4cc5c(cc4OC)N(C)[C@H]4[C@@](O)(C(=O)OC)[C@H](OC(C)=O)[C@]6(CC)C=CCN7CC[C@]54[C@@H]76)C3)C2)cc1 | 35
40 | 20 | CC[C@]1(NC(=O)c2cnccn2)C[C@H]2CN(CCc3c([nH]c4ccccc34)[C@@](C(=O)OC)(c3cc4c(cc3OC)N(C)[C@H]3[C@@](O)(C(=O)OC)[C@H](OC(C)=O)[C@]5(CC)C=CCN6CC[C@]43[C@@H]65)C2)C1 | 550
0.6 | 0.6 | CC[C@]1(NC(=O)c2ccc3nccnc3c2)C[C@H]2CN(CCc3c([nH]c4ccccc34)[C@@](C(=O)OC)(c3cc4c(cc3OC)N(C)[C@H]3[C@@](O)(C(=O)OC)[C@H](OC(C)=O)[C@]5(CC)C=CCN6CC[C@]43[C@@H]65)C2)C1 | 7.5
5.7 | 5.3 | CC[C@]1(NC(=O)c2cccc(F)c2)C[C@H]2CN(CCc3c([nH]c4ccccc34)[C@@](C(=O)OC)(c3cc4c(cc3OC)N(C)[C@H]3[C@@](O)(C(=O)OC)[C@H](OC(C)=O)[C@]5(CC)C=CCN6CC[C@]43[C@@H]65)C2)C1 | 25
5.9 | 5.7 | CC[C@]1(NC(=O)/C=C/c2cccnc2)C[C@H]2CN(CCc3c([nH]c4ccccc34)[C@@](C(=O)OC)(c3cc4c(cc3OC)N(C)[C@H]3[C@@](O)(C(=O)OC)[C@H](OC(C)=O)[C@]5(CC)C=CCN6CC[C@]43[C@@H]65)C2)C1 | 320
2.5 | 3.5 | CC[C@]1(NC(=O)c2ccc3cc(OC)ccc3c2)C[C@H]2CN(CCc3c([nH]c4ccccc34)[C@@](C(=O)OC)(c3cc4c(cc3OC)N(C)[C@H]3[C@@](O)(C(=O)OC)[C@H](OC(C)=O)[C@]5(CC)C=CCN6CC[C@]43[C@@H]65)C2)C1 | 20
0.5 | 0.7 | CC[C@]1(NC(=O)c2ccsc2)C[C@H]2CN(CCc3c([nH]c4ccccc34)[C@@](C(=O)OC)(c3cc4c(cc3OC)N(C)[C@H]3[C@@](O)(C(=O)OC)[C@H](OC(C)=O)[C@]5(CC)C=CCN6CC[C@]43[C@@H]65)C2)C1 | 7.7
0.5 | 0.6 | CC[C@]1(NC(=O)/C=C/c2ccsc2)C[C@H]2CN(CCc3c([nH]c4ccccc34)[C@@](C(=O)OC)(c3cc4c(cc3OC)N(C)[C@H]3[C@@](O)(C(=O)OC)[C@H](OC(C)=O)[C@]5(CC)C=CCN6CC[C@]43[C@@H]65)C2)C1 | 20
